ChEMBL document CHEMBL1149566, “Himbacine derived thrombin receptor (PAR-1) antagonists: SAR of the pyridine ring” (Bioorg Med Chem Lett, 2007)
Active and inactive are the calls of the source. The rule behind the calls is not given here.

Key:
[1] = biological target: T1, Proteinase-activated receptor 1 (Homo sapiens) (UniProt P25116); assay: Displacement of [3H]haTRAP from human PAR1 receptor in platelet membrane at 1 uM; type: cell membranes
T1 sequence (whole entry): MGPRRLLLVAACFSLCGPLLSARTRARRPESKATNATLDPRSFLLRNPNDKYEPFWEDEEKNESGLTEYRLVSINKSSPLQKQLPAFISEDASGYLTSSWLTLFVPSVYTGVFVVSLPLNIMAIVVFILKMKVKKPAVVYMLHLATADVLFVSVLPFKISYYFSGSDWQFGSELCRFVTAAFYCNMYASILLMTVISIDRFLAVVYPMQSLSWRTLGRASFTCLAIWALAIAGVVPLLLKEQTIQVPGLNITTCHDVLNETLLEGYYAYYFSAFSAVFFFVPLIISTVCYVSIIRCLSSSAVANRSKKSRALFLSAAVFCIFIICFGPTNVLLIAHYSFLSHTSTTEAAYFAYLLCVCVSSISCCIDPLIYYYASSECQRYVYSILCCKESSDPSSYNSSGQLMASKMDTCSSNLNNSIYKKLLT

[2] = biological target: T2, Proteinase-activated receptor 1 (Homo sapiens, UniProt P25116); assay: (§1) Displacement of [3H]haTRAP from human PAR1 receptor in platelet membrane; type: cell membranes
T2 sequence (P25116 whole entry): T1 sequence (whole entry)

[3] = Cmax in rat; type: ADME, organism-based; conditions: in vivo
[4] = AUC (0 to 4 hrs) in rat; type: ADME, organism-based; set-up: time < 4 hr; concentration or dose not given beside the values; conditions: plasma
[5] = biological target: Cannabinoid receptor 2 (Homo sapiens, UniProt P34972); assay: Binding affinity to cannabinoid CB2 receptor
Cannabinoid receptor 2, sequence (P34972 whole entry): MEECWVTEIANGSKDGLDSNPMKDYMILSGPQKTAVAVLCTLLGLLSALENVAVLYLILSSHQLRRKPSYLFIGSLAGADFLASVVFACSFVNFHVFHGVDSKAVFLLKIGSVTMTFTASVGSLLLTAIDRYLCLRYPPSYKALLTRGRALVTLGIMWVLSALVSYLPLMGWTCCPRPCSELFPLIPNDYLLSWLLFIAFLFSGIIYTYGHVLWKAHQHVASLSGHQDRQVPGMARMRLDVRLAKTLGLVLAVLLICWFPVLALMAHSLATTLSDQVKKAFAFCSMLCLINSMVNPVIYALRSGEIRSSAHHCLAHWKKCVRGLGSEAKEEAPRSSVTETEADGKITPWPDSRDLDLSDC

[6] = system: Cynomolgus monkey; assay: Ex vivo inhibition of platelet aggregation in cynomolgus monkey at 3 mg/kg up to 4 hrs; type: functional, organism-based; set-up: dose 3 mg/kg; conditions: Macaca fascicularis
[7] = system: Cynomolgus monkey; assay: Ex vivo inhibition of platelet aggregation in cynomolgus monkey at 3 mg/kg after 6 hrs; type: functional; conditions: Macaca fascicularis
[8] = biological target: T1, Proteinase-activated receptor 1 (Homo sapiens); assay: as §1; type: cell membranes

C[C@H]1OC(=O)[C@@H]2C=C3CCCC[C@H]3[C@H](/C=C/c3nccs3)[C@H]12
inhibition [1]: 14%

C[C@H]1OC(=O)[C@@H]2C[C@@H]3CCCC[C@H]3[C@H](/C=C/c3ccc(-c4nccs4)cn3)[C@H]12
IC50 [2]: 47 nM

C[C@H]1OC(=O)[C@@H]2C=C3CCCC[C@H]3[C@H](/C=C/c3ccccn3)[C@H]12
IC50 [2]: 3600 nM | inhibition [1]: 16%

C[C@H]1OC(=O)[C@@H]2C=C3CCCC[C@H]3[C@H](/C=C/c3cnc4ccccc4c3)[C@H]12
inhibition [1]: 45%

C[C@H]1OC(=O)[C@@H]2C[C@@H]3CCCC[C@H]3[C@H](/C=C/c3ccc(C4CCCC4)cn3)[C@H]12
IC50 [2]: 115 nM

C[C@H]1OC(=O)[C@@H]2C[C@@H]3CCCC[C@H]3[C@H](/C=C/c3ccc(-c4ccsc4)cn3)[C@H]12 (racemic)
IC50 [2]: 11 nM | Cmax [3]: 461 ng/mL | AUC(0-t) at 4 h [4]: 434 ng·h/mL

C[C@H]1OC(=O)[C@@H]2C[C@@H]3CCCC[C@H]3[C@H](/C=C/c3ccc(-c4ccncc4)cn3)[C@H]12
IC50 [2]: 2140 nM

C[C@H]1OC(=O)[C@@H]2C[C@@H]3CCCC[C@H]3[C@H](/C=C/c3ccc(N4CCOCC4)cn3)[C@H]12
IC50 [2]: 440 nM

C[C@H]1OC(=O)[C@@H]2C[C@@H]3CCCC[C@H]3[C@H](/C=C/c3ccc(N4CCCC4)cn3)[C@H]12
IC50 [2]: 29 nM | Ki [5]: 487 nM

C[C@H]1OC(=O)[C@@H]2C[C@@H]3CCCC[C@H]3[C@H](/C=C/c3ccc(-c4cccnc4)cn3)[C@H]12
IC50 [2]: 22 nM | Activity [6]: Active | Ki [5]: 13000 nM | Cmax [3]: 1820 ng/mL | AUC(0-t) at 4 h [4]: 4230 ng·h/mL | inhibition in vivo at 3 mg/kg [7]: 70%

C[C@H]1OC(=O)[C@@H]2C[C@@H]3CCCC[C@H]3[C@H](/C=C/c3ccc(-c4cccs4)cn3)[C@H]12 (racemic)
IC50 [2]: 16 nM | Cmax [3]: 109 ng/mL | AUC(0-t) at 4 h [4]: 160 ng·h/mL

Cc1nc(/C=C/[C@@H]2[C@@H]3[C@@H](C)OC(=O)[C@@H]3C=C3CCCC[C@H]32)ccc1-c1ccccc1
IC50 [2]: 130 nM

C[C@H]1OC(=O)[C@@H]2C[C@@H]3CCCC[C@H]3[C@H](/C=C/c3ccc(-c4cccc(C(F)(F)F)c4)cn3)[C@H]12
Cmax [3]: 1130 ng/mL | AUC(0-t) at 4 h [4]: 3010 ng·h/mL | Activity [7]: Active

C[C@H]1OC(=O)[C@@H]2C[C@@H]3CCCC[C@H]3[C@H](/C=C/c3ccc(-c4ccccn4)cn3)[C@H]12
IC50 [2]: 22 nM | Cmax [3]: 251 ng/mL | AUC(0-t) at 4 h [4]: 509 ng·h/mL

CCc1nc(/C=C/[C@@H]2[C@@H]3[C@@H](C)OC(=O)[C@@H]3C=C3CCCC[C@H]32)ccc1-c1ccccc1
IC50 [2]: 285 nM

C[C@H]1OC(=O)[C@@H]2C=C3CCCC[C@H]3[C@H](/C=C/c3cncnc3)[C@H]12
inhibition [1]: 5%

C[C@H]1OC(=O)[C@@H]2C=C3CCCC[C@H]3[C@H](/C=C/c3cnccn3)[C@H]12
inhibition [1]: 1%

Cc1cccc(/C=C/[C@@H]2[C@@H]3[C@@H](C)OC(=O)[C@@H]3C=C3CCCC[C@H]32)n1
IC50 [2]: 350 nM

C[C@H]1OC(=O)[C@@H]2C[C@@H]3CCCC[C@H]3[C@H](/C=C/c3ccc(-c4cncn4C)cn3)[C@H]12
IC50 [2]: 145 nM

C[C@H]1OC(=O)[C@@H]2C[C@@H]3CCCC[C@H]3[C@H](/C=C/c3ccc(N4CCN(C)CC4)cn3)[C@H]12
inhibition [1]: 12%

C[C@H]1OC(=O)[C@@H]2C[C@@H]3CCCC[C@H]3[C@H](/C=C/c3ccc(-c4ncc[nH]4)cn3)[C@H]12
IC50 [2]: 1320 nM

C[C@H]1OC(=O)[C@@H]2C=C3CCCC[C@H]3[C@H](/C=C/c3ccc(-c4ccccc4)cn3)[C@H]12
IC50 [2]: 43 nM

C[C@H]1OC(=O)[C@@H]2C[C@@H]3CCCC[C@H]3[C@H](/C=C/c3ccc(-c4ccccc4)cn3)[C@H]12
Cmax [3]: 223 ng/mL | AUC(0-t) at 4 h [4]: 451 ng·h/mL

C[C@H]1OC(=O)[C@@H]2C[C@@H]3CCCC[C@H]3[C@H](/C=C/c3ccc(-c4ccc[n+]([O-])c4)cn3)[C@H]12
IC50 [2]: 207 nM

C[C@H]1OC(=O)[C@@H]2C[C@@H]3CCCC[C@H]3[C@H](/C=C/c3ccc(-c4ccco4)cn3)[C@H]12 (racemic)
IC50 [2]: 12 nM

C[C@H]1OC(=O)[C@@H]2C[C@@H]3CCCC[C@H]3[C@H](/C=C/c3ccc(N4CCN(c5ccccc5)CC4)cn3)[C@H]12
IC50 [2]: 3300 nM

C[C@H]1OC(=O)[C@@H]2C=C3CCCC[C@H]3[C@H](/C=C/c3cccnc3)[C@H]12
inhibition [1]: 11%

C[C@H]1OC(=O)[C@@H]2C=C3CCCC[C@H]3[C@H](/C=C/c3nc4ccccc4o3)[C@H]12
inhibition [1]: 38%

C[C@H]1OC(=O)[C@@H]2C[C@@H]3CCCC[C@H]3[C@H](/C=C/c3ccc(-c4cnccn4)cn3)[C@H]12
IC50 [2]: 88 nM

Cc1cccc(/C=C/[C@@H]2[C@@H]3[C@@H](C)OC(=O)[C@@H]3C=C3CCCC[C@H]32)c1
Activity [8]: inactive

C[C@H]1OC(=O)[C@@H]2C[C@@H]3CCCC[C@H]3[C@H](/C=C/c3ccc(-c4ccc(Cl)s4)cn3)[C@H]12 (racemic)
IC50 [2]: 36 nM | Cmax [3]: 343 ng/mL | AUC(0-t) at 4 h [4]: 1060 ng·h/mL

C[C@H]1OC(=O)[C@@H]2C=C3CCCC[C@H]3[C@H](/C=C/c3ccccc3)[C@H]12
Activity [8]: inactive | inhibition [1]: 2%

CCc1ccc(/C=C/[C@H]2[C@@H]3CCCC[C@H]3C[C@H]3C(=O)O[C@H](C)[C@@H]23)nc1
IC50 [2]: 263 nM
